The test system of one test is panel of trained tasters. Description: Taste evaluation in water. The format is in vivo. The settings on record: 1 ppm in water. How it is done:
A one percent cut of each compound of Examples 1-13 was prepared first. The hydrochloride salts were cut directly into water, while the free base examples were cut into ethanol. Next, 100 ml of a 1 ppm, 10 ppm and 20 ppm solution were prepared. The 1 ppm standards were prepared by addition of 0.0126 ml (cut in ethanol) or 0.01 ml (cut in water) to an amber bottle followed by dilution to 100 g total sample weight using water. The 10 and 20 ppm solutions were prepared similarly, but using 0.126 ml ethanol/0.1 ml water or 0.252 ml ethanol/0.2 ml water of the 1% cuts respectively. Next, the samples were evaluated by a panel of trained tasters.
`Oc1ccccc1SCCc1ccccn1` [Example 7, 2-((2-(PYRIDIN-2-YL)ETHYL)THIO)PHENOL]: the aroma entry is “Green pepper” and the taste entry is reported as “very weak: umami, salty, weak bitter”.
In the case of `COc1ccc(SCCc2ccccn2)cc1.Cl` [Example 13, 2-(2-((4-METHOXYPHENYL)THIO)ETHYL)PYRIDINE HYDROCHLORIDE], the taste entry is “Weak umami, very weak bitter, astringent”.
`Cc1cccc(SCCc2ccccn2)c1.Cl` [Example 12, 2-(2-(M-TOLYLTHIO)ETHYL)PYRIDINE HYDROCHLORIDE]: the taste entry is listed as “weak: umami, astringent, very weak salty”.
As for `Cc1ccc(SCCc2ccccn2)cc1.Cl` [Example 4, 2-(2-(P-TOLYLTHIO)ETHYL)PYRIDINE HYDROCHLORIDE], the taste result is “very weak: umami, bitter, astringent”.
`c1ccc(CSCCc2ccccn2)cc1` [Example 11, 2-(2-(BENZYLTHIO)ETHYL)PYRIDINE]: the aroma result was “phenolic” and the taste entry was “weak umami, very weak astringent”.
For `Oc1ccc(SCCc2ccccn2)cc1` [Example 6, 4-((2-(PYRIDIN-2-YL)ETHYL)THIO)PHENOL], the aroma result was “green” and the taste result is “very weak: umami, astringent”.

The test is the same for the next values; noted with them: 10 ppm in water.
As to `Oc1ccccc1SCCc1ccccn1` [Example 7, 2-((2-(PYRIDIN-2-YL)ETHYL)THIO)PHENOL], the aroma result is “Green pepper” and the taste entry is on record as “weak to moderate umami, weak: bitter, metallic,”.
With `COc1ccc(SCCc2ccccn2)cc1.Cl` [Example 13, 2-(2-((4-METHOXYPHENYL)THIO)ETHYL)PYRIDINE HYDROCHLORIDE], the taste entry was “Moderate to strong umami, very weak: bitter,”.
As to `Cc1cccc(SCCc2ccccn2)c1.Cl` [Example 12, 2-(2-(M-TOLYLTHIO)ETHYL)PYRIDINE HYDROCHLORIDE], the taste result was “moderate umami, weak: salty, astringent”.
With `Cc1ccc(SCCc2ccccn2)cc1.Cl` [Example 4, 2-(2-(P-TOLYLTHIO)ETHYL)PYRIDINE HYDROCHLORIDE], the aroma result was “green” and the taste entry was “weak: umami, bitter, astringent, very weak”.
With `c1ccc(CSCCc2ccccn2)cc1` [Example 11, 2-(2-(BENZYLTHIO)ETHYL)PYRIDINE], the aroma result was “Phenolic, spicy” and the taste entry is on record as “weak umami, very weak astringent”.
With `Oc1ccc(SCCc2ccccn2)cc1` [Example 6, 4-((2-(PYRIDIN-2-YL)ETHYL)THIO)PHENOL], the aroma result is given as “Green, fruity” and the taste result is reported as “weak: umami, bitter, astringent, very weak”.

Still in this test, the particulars now being: 20 ppm in water.
Take `Oc1ccccc1SCCc1ccccn1` [Example 7, 2-((2-(PYRIDIN-2-YL)ETHYL)THIO)PHENOL]: the aroma entry is listed as “Green pepper” and the taste entry was “Weak to moderate umami, weak bitter, very”.
In the case of `COc1ccc(SCCc2ccccn2)cc1.Cl` [Example 13, 2-(2-((4-METHOXYPHENYL)THIO)ETHYL)PYRIDINE HYDROCHLORIDE], the aroma entry is listed as “pyrazine” and the taste result was “Strong umami, very weak bitter”.
For the molecule `Cc1cccc(SCCc2ccccn2)c1.Cl` [Example 12, 2-(2-(M-TOLYLTHIO)ETHYL)PYRIDINE HYDROCHLORIDE], the taste entry is “moderate to strong umami, weak: salty,”.
As to `Cc1ccc(SCCc2ccccn2)cc1.Cl` [Example 4, 2-(2-(P-TOLYLTHIO)ETHYL)PYRIDINE HYDROCHLORIDE], the aroma result is recorded as “green” and the taste entry is “Weak: umami, bitter, metallic, sour, astringent”.
Turning to `c1ccc(CSCCc2ccccn2)cc1` [Example 11, 2-(2-(BENZYLTHIO)ETHYL)PYRIDINE], the aroma result is “Phenolic, spicy” and the taste entry is reported as “moderate to strong umami, very weak bitter,”.
Consider `Oc1ccc(SCCc2ccccn2)cc1` [Example 6, 4-((2-(PYRIDIN-2-YL)ETHYL)THIO)PHENOL], for which the aroma result is recorded as “Green, fruity” and the taste entry is “weak: umami, bitter, astringent, very weak”.

Another test relates to bench-top tasting panel. The test can be described thus: Umami evaluation in retorted chicken broth (Example 20). The settings on record: Example 3 4 ppm, Example 13 3 ppm, Example 10 4 ppm, Example 9 3 ppm. The format is in vivo. The protocol: (§1) Umami evaluations were done in dry noodle seasoning, chicken broth, retorted chicken broth, cheese sauce and salted potato chip applications. Each application was prepared using MSG, the experimental umami tastant and a blank which contained neither MSG nor the experimental umami tastant. Next, using a bench-top tasting panel (consisting of 7 to 14 panelists), panelists were asked to record the sensory attribute differences between the control (blank), the MSG application and the application containing the experimental umami tastant. These sensory attributes include umami, saltiness, bitterness, off-notes, mouth feel attribute, lingering attribute and flavor profile differences.
The procedure for the preparation of the retorted chicken broth is the same as in example 16. Compounds from Examples 3, 9, 10 and 13 were spiked individually into the chicken broth generating six samples, as described below.
For `COc1ccc(SCCc2ccccn2)cc1.Cl` [Example 13, 2-(2-((4-METHOXYPHENYL)THIO)ETHYL)PYRIDINE HYDROCHLORIDE], the “flavor profile described by panelists” value is “a slightly sweet/slightly bitter profile”.

The same test, now with this note: MSG 0.20%, Example 3 4 ppm, Example 13 3 ppm, Example 10 4 ppm, Example 9 3 ppm, 9 panelists.
As for `COc1ccc(SCCc2ccccn2)cc1.Cl` [Example 13, 2-(2-((4-METHOXYPHENYL)THIO)ETHYL)PYRIDINE HYDROCHLORIDE], the umami strength ranking result is reported as “MSG>3 ppm example 9>3 ppm Example 13>4 ppm Example 3>Blank retorted chicken broth>4 ppm Example 10”.

For another test, the system named is bench-top tasting panel. Description: Bain marie (hot water bath) test with chicken broth. The format is in vivo. As to conditions: hot water bath 150° F. for 4 hours, Example 3 3 ppm, Example 13 2 ppm (table), Example 10 3 ppm, Example 9 2 ppm. The protocol:
as §1
Chicken broth was prepared as previously described in example 15. Compounds from Examples 3, 9, 10 and 13 were added to the chicken broth in the concentrations described below and placed in a hot water bath (150° F.) for 4 hours prior to taste evaluation.
Regarding `COc1ccc(SCCc2ccccn2)cc1.Cl` [Example 13, 2-(2-((4-METHOXYPHENYL)THIO)ETHYL)PYRIDINE HYDROCHLORIDE], the “flavor profile described by panelists” value is “mid/late umami with some late onset bitterness”.

The same test, now with this note: hot water bath 150° F. for 4 hours, MSG 0.20%, Example 3 3 ppm, Example 13 2 ppm (table), Example 10 3 ppm, Example 9 2 ppm, 7 panelists.
As for `COc1ccc(SCCc2ccccn2)cc1.Cl` [Example 13, 2-(2-((4-METHOXYPHENYL)THIO)ETHYL)PYRIDINE HYDROCHLORIDE], the umami strength ranking result is reported as “MSG>2 ppm example 9>3 ppm Example 10=4 ppm Example 13>Blank chicken broth>3 ppm Example 3”.

The next test concerns bench-top tasting panel. The test can be described thus: Umami evaluation on salted potato chips (Example 22). The format is in vivo. As to conditions: 1% salted potato chips; Example 3 10 ppm, Example 13 10 ppm, Example 10 6 ppm, Example 9 10 ppm. The protocol:
as §1
The potato chips were prepared as previously described in example 19 and spiked with compounds from Examples 3, 9, 10 and 13 as described below.
As to `COc1ccc(SCCc2ccccn2)cc1.Cl` [Example 13, 2-(2-((4-METHOXYPHENYL)THIO)ETHYL)PYRIDINE HYDROCHLORIDE], the “flavor profile described by panelists” value is on record as “A good, salty, umami profile”.

Staying with this test, now noted: 1% salted potato chips; MSG 0.2%, Example 3 10 ppm, Example 13 10 ppm, Example 10 6 ppm, Example 9 10 ppm; 9 panelists.
In the case of `COc1ccc(SCCc2ccccn2)cc1.Cl` [Example 13, 2-(2-((4-METHOXYPHENYL)THIO)ETHYL)PYRIDINE HYDROCHLORIDE], the umami strength ranking is reported as 10 ppm Example 3>10 ppm Example 9>MSG>10 ppm Example 13>blank>6 ppm Example 10.

The values above are taken from patent publication US10178875B2, “Methods of modifying or imparting taste using organic compounds” (Givaudan, S.A., priority 2013, dated 2019).
